Source: US20050227982A1, “Antileishmanial dinitroaniline sulfanomides with activity against parasite tubulin” (priority 2002, published 2005)
Like-named read-outs stand apart in the source and are kept apart here.

Legend:
[1] = tested on: L. donovani promastigotes; test: Growth inhibition of L. donovani promastigotes; type: cell-based, Leishmania donovani; details: read-out: IC50 vs. L. donovani promastigotes
leishmanial tubulin = type: biochemical; details: mean ± SD of at least one duplicate measurement, SD of controls 27.6%
Experimental: (§1) 2000, 110, 223-236, incorporated herein by reference.^14
Briefly, the tubulin assembly assays are performed as follows. […] The change in turbidity was measured at 351 nm using the SpectraMax Plus microplate reader immediately after GTP addition at 30° C. (for leishmanial tubulin) or 37° C. (for brain tubulin).

[2] = tested on: L. donovani axenic amastigotes; test: Growth inhibition of L. donovani axenic amastigotes (three-day tetrazolium dye assay); type: cell-based, Leishmania donovani
Experimental: as §1
(§2) Determination of the drug susceptibility of parasites and mammalian cells. The susceptibility of Leishmania donovani amastigote-like parasites (WHO designation: MHOM/SD/62/1S-CL2D) to growth inhibition by compounds of interest was measured in a three-day assay using the tetrazolium dye-based CellTiter reagent (Promega) (Werbovetz, K., Brendle, J., and Sackett, D. (1999) Mol. Biochem. Parasitol. 98, 53-65., and Havens, C., Bryant, N., Asher, L., Lamoreaux, L., Perfetto, S., Brendle, J., and Werbovetz, K. (2000) Mol. Biochem. Parasitol. 110, 223-236). The amastigote medium used in this assay is based on the medium mentioned by Joshi et al. (Joshi, M., Dwyer, D. M., and Nakhasi, H. L. (1993) Mol. Biochem. Parasitol. 58, 345-354). Prior to addition of fetal bovine serum to a final concentration of 20%, this amastigote medium contains 15 mM KCl, 115 mM KH2PO4, 10 mM K2HPO4, 0.5 mM MgSO4, 24 mM NaHCO3, a 1-concentration of RPMI-1640 vitamins and amino acids, 2.0 mM L-glutamine, 22 mM D-glucose, 100 units/mL penicillin, 100 ∝g/ml streptomycin, 0.1 mM adenosine, 1 ∝g/mL folate, and 25 mM MES (pH 5.5). Compounds were tested for their activity against bloodstream-form Trypanosoma brucei brucei (MITat 1.2, variant 221) axenically-cultured in HMI-9 medium , H., and Hirumi, K. (1989) J. Parasitol. 75, 985-989.) following the procedure of Ellis et al. (Ellis, J., Fish, W., Sileghem, M., and McOdimba, F. (1993) Vet. Parasitol. 50, 143-149.) with some modifications. Briefly, 100 μL of late log phase parasites were incubated in 96-well plates (Costar) at an initial concentration of 10^5 cells/ml with or without test compounds at 37° C. in a humidified 5% CO2 atmosphere for 72 hours. Twenty-five μL of a 5 mg/mL solution of MTT (prepared in phosphate buffered saline and filter sterilized) was then added to each well and plates were re-incubated at 37° C. as before for 2 h. One hundred ∝L of 20% SDS lysis buffer (prepared in 50% aqueous DMF) was added to each well and plates were incubated as before for an additional 3-4 h. Optical densities were then measured at 570 nm using SpectraMax Plus microplate reader. […] Assessment of the in vitro sensitivity of T. b. brucei Lab 110 EATRO and P. falciparum strains to compounds was performed by methods described in Donkor et al. (Donkor, I., Assefa, H., Rattendi, D., Lane, S., Vargas, M., Goldberg, B., and Bacchi, C. (2001) Eur. J. Med. Chem. 36, 531-538.) and Guan et al. (Guan, J., Kyle, D., Gerena, L., Zhang, Q., Milhous, W., and Lin, A. (2002) J. Med. Chem. 45, 2741-2748).

[3] = tested on: Trypanosoma brucei brucei (MITat 1.2, variant 221); test: microbe, parasite or virus in culture; type: cell-based; details: read-out: IC50, T. b. brucei variant 221
Experimental: as §2

J774 murine macrophages = test: Toxicity to J774 macrophages (three-day CellTiter assay); type: cell-based; details: read-out: IC50, J774 macrophages
Experimental: The toxicity of compounds to J774 murine macrophages and PC3 […] cells was measured in a three-day assay using the CellTiter reagent. […] Macrophages were allowed to adhere for 24 hours, then the medium was removed and replaced with serial dilutions of the test compounds in the DMEM medium mentioned above without phenol red. After 72 hr incubation with the test compounds at 37° C. in a humidified 5% CO2 incubator, cell viability was determined using the CellTiter reagent by adding 20 μL of assay solution to each well. After a 6-7 h incubation at 37° C. to allow for color development, the absorbance of each well at 490 nm was measured in a SpectraMax Pro microplate reader (Molecular Devices). The toxicity of compounds to PC3 cells was assessed in the same manner as for the macrophages, except that the medium used was RPMI 1640 supplemented with 10% heat inactivated fetal calf serum, 2.0 mM L-glutamine, 50 units/mL penicillin, and 50 ∝g/mL streptomycin. IC50 values for the J774 and PC3 assays were determined with the software program SoftMax Pro as described earlier.

[4] = mean ± standard deviation of at least two independent measurements
[5] = Leishmania donovani, Table 1, mean ± standard deviation of at least two independent measurements, read-out: IC50 vs. L. donovani amastigotes
[6] = unit inferred, three-day tetrazolium dye assay, read-out: IC50, L. donovani axenic amastigotes
[7] = Trypanosoma brucei, unit inferred

Compound | IC50 [2, 6] | IC50 ([3]; unit inferred) | IC50 (J774 murine macrophages; unit inferred) | also measured
CCCNc1c([N+](=O)[O-])cc(S(N)(=O)=O)cc1[N+](=O)[O-] [Compound 13] | – | – | – | IC50 [1, 4]: 67 ± 18.4 µM; % Inhibition of Leishmanial Tubulin Assembly at 20 μM Compound (leishmanial tubulin): 43 ± 19%
CCCCCN(CCCCC)c1c([N+](=O)[O-])cc(S(N)(=O)=O)cc1[N+](=O)[O-] [Compound 16] | – | – | – | IC50 [2, 5]: 9 ± 0.7 µM; IC50 ([1]; Leishmania donovani): 8.02 ± 0.42 µM; % Inhibition of Leishmanial Tubulin Assembly at 20 μM Compound (leishmanial tubulin): 95 ± 5%
NS(=O)(=O)c1cc([N+](=O)[O-])c(N2CCCC2)c([N+](=O)[O-])c1 [Compound 19] | – | – | – | IC50 [1, 4]: 97.1 ± 53 µM; % Inhibition of Leishmanial Tubulin Assembly at 20 μM Compound (leishmanial tubulin): 57 ± 18%
CCCN(CCC)c1c([N+](=O)[O-])cc(C#N)cc1[N+](=O)[O-] [Compound 27] | – | – | – | IC50 [1, 4]: > 100 µM; % Inhibition of Leishmanial Tubulin Assembly at 20 μM Compound (leishmanial tubulin): 25 ± 17%
CCCN(CCC)c1c([N+](=O)[O-])cc(C(N)=NO)cc1[N+](=O)[O-] [Compound 29] | – | – | – | IC50 [1, 4]: > 100 µM; % Inhibition of Leishmanial Tubulin Assembly at 20 μM Compound (leishmanial tubulin): 35 ± 7%
CCCN(CCC)c1c([N+](=O)[O-])cc(S(=O)(=O)Nc2cccc(OC)c2)cc1[N+](=O)[O-] [Compound 30, N1-(3-Methoxy)phenyl-3,5-dinitro-N4,N4-di-n-propylsulfonilamide] | 8.11 ± 3.33 µM | 0.5 µM | 25.3 ± 3.8 µM | –
CCN(CC)c1c([N+](=O)[O-])cc(S(=O)(=O)Nc2ccccc2)cc1[N+](=O)[O-] [Compound 31, N1-Phenyl-3,5-dinitro-N4,N4-di-n-ethylsulfonilamide] | 10.6 ± 2.6 µM | 1.9 µM | 47.7 ± 1.6 µM | –
CCCCN(CCCC)c1c([N+](=O)[O-])cc(S(=O)(=O)Nc2ccccc2)cc1[N+](=O)[O-] [Compound 32, N1-Phenyl-3,5-dinitro-N4,N4-di-n-butylsulfonilamide] | 2.57 ± 0.25 µM | 0.1 µM | 11.9 ± 0.5 µM | –
CCCN(CCC)c1c([N+](=O)[O-])cc(S(=O)(=O)NC)cc1[N+](=O)[O-] [Compound 33, N1-Methyl-3,5-dinitro-N4,N4di-n-propylsulfonilamide] | > 100 µM | 4.6 µM | – | –
CCCN(CCC)c1c([N+](=O)[O-])cc(S(=O)(=O)N(C)C)cc1[N+](=O)[O-] [Compound 34, N1,M1-Dimethyl-3,5-dinitro-N4,N4-di-n-propylsulfonilamide] | > 100 µM | 5.9 µM | – | –
CCCN(CCC)c1c([N+](=O)[O-])cc(S(=O)(=O)NCC)cc1[N+](=O)[O-] [Compound 35, N1-Ethyl-3,5-dinitro-N4,N4-di-n-propylsulfonilamide] | > 100 µM | 4 µM | – | –
CCCN(CCC)c1c([N+](=O)[O-])cc(S(=O)(=O)N(CC)CC)cc1[N+](=O)[O-] [Compound 36, N1,N1-Diethyl-3,5-dinitro-N4,N4-di-n-propylsulfonilamide] | 26.7 ± 0.4 µM | 10.2 µM | – | –
CCCN(CCC)c1c([N+](=O)[O-])cc(S(=O)(=O)NC(C)C)cc1[N+](=O)[O-] [Compound 38, N1-Isopropyl-3,5-dinitro-N4,N4-di-n-propylsulfonilamide] | 42.8 ± 2.3 µM | 2.5 µM | – | –
CCCN(CCC)c1c([N+](=O)[O-])cc(S(=O)(=O)Nc2ccc(OC)cc2)cc1[N+](=O)[O-] [Compound 39, N1-(4-Methoxy)phenyl-3,5-dinitro-N4,N4-di-n-Propylsulfonilamide] | 31.9 ± 14.6 µM | 20.5 µM | 15.2 ± 6.7 µM | –
CCCN(CCC)c1c([N+](=O)[O-])cc(S(=O)(=O)Nc2ccc(C)cc2)cc1[N+](=O)[O-] [Compound 40, N1-(4Methyl)phenyl-3,5-dinitro-N4,N4-di-n-propylsulfonilamide] | 32.1 ± 12.7 µM | 10.5 µM | 10.5 ± 2 µM | –
CCCN(CCC)c1c([N+](=O)[O-])cc(S(=O)(=O)Nc2ccc(Cl)cc2)cc1[N+](=O)[O-] [Compound 41, N1-(4-Chloro)phenyl-3,5dinitro-N4,N4-di-n-propylsulfonilamide] | 13.3 ± 3 µM | 9.5 µM | 9.13 ± 3.81 µM | –
CCCN(CCC)c1c([N+](=O)[O-])cc(S(=O)(=O)Nc2cccc(Cl)c2)cc1[N+](=O)[O-] [Compound 43, N1-(3-Chloro)phenyl-3,5-dinitro-N4,N4-di-n-propylsulfonilamide] | 5.47 ± 0.1 µM | 0.88 µM | 8.67 ± 0.17 µM | –
CCCN(CCC)c1c([N+](=O)[O-])cc(S(=O)(=O)Nc2ccc(Cl)c(Cl)c2)cc1[N+](=O)[O-] [Compound 44, N1-(3,4-Dichloro)phenyl-3,5-dinitro-N4,N4-di-n-propylsulfonilamide] | 5.03 ± 0.8 µM | 6.7 µM | 7.19 ± 0.59 µM | –
CCCN(CCC)c1c([N+](=O)[O-])cc(S(=O)(=O)Nc2cc(Cl)cc(Cl)c2)cc1[N+](=O)[O-] [Compound 45, N1-(3,5-Dichloro)phenyl-3,5-dinitro-N4,N4-di-n-propylsulfonilamide] | 3.71 ± 0.91 µM | 3.4 µM | 5.12 ± 0.35 µM | –
CCCN(CCC)c1c([N+](=O)[O-])cc(S(=O)(=O)Nc2ccccn2)cc1[N+](=O)[O-] [Compound 46, N1-(2-Pyridinyl)-3,5-dinitro-N4,N4-di-n-propylsulfonilamide] | 59.7 ± 6.2 µM | 10.9 µM | 44.9 ± 16.3 µM | –
N=C(N)c1ccc(OCCCCCOc2ccc(C(=N)N)cc2)cc1 [Pentamidine, reference compound] | – | – | – | IC50 ([2]; Leishmania donovani, 72 h, unit inferred, three-day tetrazolium dye assay, read-out: IC50, L. donovani axenic amastigotes): 2 ± 0.06 µM; IC50 [2, 5]: 2 ± 0.06 µM; IC50 ([1]; Leishmania donovani, mean ± standard deviation of at least two independent measurements): 1.61 ± 0.22 µM; IC50 [3, 7]: 0.0194 ± 0.0069 µM
Cc1ccc(C(=O)Nc2ccc(S(=O)(=O)O)c3cc(S(=O)(=O)O)cc(S(=O)(=O)O)c23)cc1NC(=O)c1cccc(NC(=O)Nc2cccc(C(=O)Nc3cc(C(=O)Nc4ccc(S(=O)(=O)O)c5cc(S(=O)(=O)O)cc(S(=O)(=O)O)c45)ccc3C)c2)c1 [Suramin, reference compound] | – | – | – | IC50 [3, 7]: 0.233 ± 0.05 µM
N1-(3-Methyl)phenyl-3,5-dinitro-N4,N4-di-n-propylsulfonilamide [Compound 42] | – | – | – | IC50 ([2]; read-out: IC50, L. donovani axenic amastigotes): 22.7 ± 0.8 µM; IC50 [3]: 0.92 µM; IC50 (J774 murine macrophages): 15.8 ± 2.1 µM
